Laboratory results: article PMC12591484 (PLOS One, 2025)

How the values were obtained:
[1] = system: α1β3γ2L GABAA receptors, bulky mutation at α1S270; design: key to Mutant-function result, α1+ (M2, M3) S270: +: Mutant-function studies are deemed positive when bulky mutations (mostly tryptophans) at the site significantly reduce positive modulation by anesthetics; -: Negative results are indicated by “–“ symbols; conditions: cited from earlier work
[2] = system: α1β3γ2L GABAA receptors, bulky mutation at β3M227; design: key: +: Mutant-function studies are deemed positive when bulky mutations (mostly tryptophans) at the site significantly reduce positive modulation by anesthetics; -: Negative results are indicated by “–“ symbols; conditions: cited from earlier work
[3] = system: α1β3γ2L GABAA receptors, bulky mutation at β3N265; design: method as in PMID 30696720, PMID 32247113; key: +: Mutant-function studies are deemed positive when bulky mutations (mostly tryptophans) at the site significantly reduce positive modulation by anesthetics; -: Negative results are indicated by “–“ symbols; conditions: cited from earlier work
[4] = system: α1β3γ2L GABAA receptors, bulky mutation at γ2I242; design: key to Mutant-function result, γ2– (M1) I242: +: Mutant-function studies are deemed positive when bulky mutations (mostly tryptophans) at the site significantly reduce positive modulation by anesthetics; -: Negative results are indicated by “–“ symbols; conditions: cited from earlier work
[5] = system: α1β3γ2L GABAA receptors, bulky mutation at γ2S280; design: method as in PMID 30696720, PMID 32247113; key: +: Mutant-function studies are deemed positive when bulky mutations (mostly tryptophans) at the site significantly reduce positive modulation by anesthetics; -: Negative results are indicated by “–“ symbols; conditions: cited from earlier work
[6] = target: T1, α1M236Cβ3γ2L GABAA receptors (Homo sapiens, UniProt P14867+P18507+P28472, M263C); assay: Drug protection from pCMBS modification (SCAMP); assay type: cell-based; design: key: +: Mutant-function studies are deemed positive when bulky mutations (mostly tryptophans) at the site significantly reduce positive modulation by anesthetics; -: Negative results are indicated by “–“ symbols; conditions: results of this study (*); some cells also cite [9]
T1 construct: expressed in transfected cells; host or cells: Xenopus oocytes injected with capped mRNA, 1α:1β:5γ
Protocol: (§1) Experiments were performed in ND-96 buffer at room temperature (20–22°C). Oocytes were placed in a low-volume (30µl) flow chamber and impaled with borosilicate microelectrodes filled with 3M KCl (resistance 0.5–3 MΩ) and voltage-clamped at −50 mV (model OC-725C; Warner Instruments, Hamden, CT, USA). Superfusate solutions in ND-96 were delivered at 2 ml/min from glass syringe reservoirs via computer-controlled valves (VC-8; Warner Instruments), a micro-manifold (ALA-VM8; ALA Scientific Instruments, Farmingdale, NY, USA), and PTFE tubing. Currents were digitized at 200 Hz on a computer running ClampEx v8.0 software (Molecular Devices, San Jose, CA, USA). Digitized traces were filtered with a 10-Hz low-pass Bessel function, leak corrected and analyzed for peak amplitude off-line using Clampfit v8 software (Molecular Devices).
(§2) Drug protection from pCMBS modification was assessed under pCMBS exposure conditions that produced approximately half of the maximal modification ratio for each mutant receptor, and a least a value of 3. This approach balanced the magnitude of functional modification signals (smaller with less pCMBS exposure) against the challenge of using a reversibly bound ligand to competitively block an irreversible covalent cysteine-modifying reaction. […] Each oocyte was used in a single SCAMP experiment. […] Etomidate was used as a positive control for anesthetic protection in α1M236C and β3M286C mutants and as a negative control in α1S270C, α1A291C, β3L231C, γ2S301C, γ2I242C, and γ2L246C mutants. R-mTFD-MPAB was used as a positive control in α1S270C, α1A291C, β3L231C, and γ2LS301C mutants and as a negative control in α1M236C and β3M286C mutants. For each cysteine mutant and protective drug combination, five oocytes were studied.
(§3) Non-linear least squares fits and statistical analyses were performed in Prism 10.4.0. (GraphPad Software, San Diego, CA, USA). […] Protection (steric inhibition of pCMBS modification) was inferred when anesthetics produced significant reductions in modification ratios relative to control (no anesthetic) values. The statistical significance threshold was p < 0.05.

[7] = target: T2, α1A291Cβ3γ2L GABAA receptors (Homo sapiens, UniProt P14867+P18507+P28472, A318C); assay: Drug protection from pCMBS modification (SCAMP); assay type: cell-based; conditions: for modification ratio with anesthetic present, single oocyte example (Fig 2): 3 mM GABA + 10 µM pCMBS for 90 s plus […] etomidate
T2 construct: expressed in transfected cells; host or cells: Xenopus oocytes injected with capped mRNA, 1α:1β:5γ
Protocol: as §1, §2, §3

[8] = system: α1β3γ2L GABAA receptors, bulky mutation at α1M236; design: key: +: Mutant-function studies are deemed positive when bulky mutations (mostly tryptophans) at the site significantly reduce positive modulation by anesthetics; -: Negative results are indicated by “–“ symbols; conditions: cited from earlier work
[9] = system: α1β3γ2L GABAA receptors, bulky mutation at β3M286; design: method as in PMID 30696720; key: +: Mutant-function studies are deemed positive when bulky mutations (mostly tryptophans) at the site significantly reduce positive modulation by anesthetics; -: Negative results are indicated by “–“ symbols; conditions: cited from earlier work
[10] = α1A291Cβ3γ2L, 8 µM R-mTFD-MPAB or 10 µM pTFD-di-iPr-BnOH

T2 sequence (P14867 28-456 A318C): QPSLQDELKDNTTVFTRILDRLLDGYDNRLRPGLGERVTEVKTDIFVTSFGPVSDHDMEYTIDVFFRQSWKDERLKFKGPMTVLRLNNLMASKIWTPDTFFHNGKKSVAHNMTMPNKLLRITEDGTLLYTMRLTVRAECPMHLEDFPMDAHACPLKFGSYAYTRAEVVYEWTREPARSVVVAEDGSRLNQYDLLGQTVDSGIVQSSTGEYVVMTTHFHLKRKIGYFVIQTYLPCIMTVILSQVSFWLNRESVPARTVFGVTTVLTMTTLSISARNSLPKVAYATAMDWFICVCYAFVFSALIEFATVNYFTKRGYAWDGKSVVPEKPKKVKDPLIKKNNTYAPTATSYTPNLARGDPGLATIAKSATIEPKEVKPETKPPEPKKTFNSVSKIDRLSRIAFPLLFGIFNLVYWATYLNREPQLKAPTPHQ
T2 sequence (P28472 26-473): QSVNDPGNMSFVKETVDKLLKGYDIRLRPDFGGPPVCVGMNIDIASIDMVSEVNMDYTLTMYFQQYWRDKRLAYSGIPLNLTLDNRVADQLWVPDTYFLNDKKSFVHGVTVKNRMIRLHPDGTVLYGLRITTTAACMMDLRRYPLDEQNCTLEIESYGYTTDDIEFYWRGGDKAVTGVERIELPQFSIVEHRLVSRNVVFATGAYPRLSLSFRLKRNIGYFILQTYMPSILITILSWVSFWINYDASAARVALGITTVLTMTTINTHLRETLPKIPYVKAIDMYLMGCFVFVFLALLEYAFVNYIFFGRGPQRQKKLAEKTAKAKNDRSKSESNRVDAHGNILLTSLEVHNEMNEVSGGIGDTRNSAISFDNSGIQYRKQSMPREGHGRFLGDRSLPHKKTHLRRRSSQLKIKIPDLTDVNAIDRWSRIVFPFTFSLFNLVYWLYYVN
T2 sequence (P18507 40-475): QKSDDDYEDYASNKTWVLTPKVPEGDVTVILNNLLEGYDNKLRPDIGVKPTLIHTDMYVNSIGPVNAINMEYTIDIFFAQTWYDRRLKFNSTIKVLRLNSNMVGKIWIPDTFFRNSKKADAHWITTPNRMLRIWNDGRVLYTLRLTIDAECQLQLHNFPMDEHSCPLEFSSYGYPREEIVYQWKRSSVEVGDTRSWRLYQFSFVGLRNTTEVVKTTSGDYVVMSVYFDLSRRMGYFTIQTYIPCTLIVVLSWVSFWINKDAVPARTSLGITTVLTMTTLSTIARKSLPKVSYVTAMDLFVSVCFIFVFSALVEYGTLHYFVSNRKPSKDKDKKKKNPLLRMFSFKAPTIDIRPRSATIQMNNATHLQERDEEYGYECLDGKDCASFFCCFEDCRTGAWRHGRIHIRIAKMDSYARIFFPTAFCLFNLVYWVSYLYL
T1 sequence (P14867 28-456 M263C): as the sequence (P14867 28-456 A318C) above, with M236C, C291A counted along it
T1 sequence (P28472 26-473): as the sequence (P28472 26-473) above
T1 sequence (P18507 40-475): as the sequence (P18507 40-475) above

SMILES | Mutant-function result, α1+ (M2, M3) S270 [1] | effect of mutation on receptor modulation by the anesthetic ([1]; α1S270I mutation) | Mutant-function result, β3– (M1) M227 [2] | Mutant-function result, β3+ (M2, M3) N265 [3] | Mutant-function result, γ2– (M1) I242 [4] | effect of mutation on receptor modulation by the anesthetic ([4]; γ2I242W mutation) | Mutant-function result, γ2+ (M2, M3) S280 [5] | SCAMP result, α1– (M1) M236 [6] | modification ratio with anesthetic present, single oocyte example (Fig 2) [7, 10] | Mutant-function result, α1– (M1) M236 [8] | Mutant-function result, β3+ (M2, M3) M286 [9] | protection from pCMBS modification (significant reduction of modification ratio vs control, p < 0.05) ([7]; α1A291C (α+), pCMBS 10 µM x 90 s, […] etomidate, 8 µM R-mTFD-MPAB or 10 µM pTFD-di-iPr-BnOH, n = 5) | modification ratio lower than control ([7]; α1A291Cβ3γ2L, single oocyte examples of Fig 2, control modification ratio 4.0) [%]
CC(C)c1cc(C2(C(F)(F)F)N=N2)cc(C(C)C)c1CO [pTFD-di-iPr-BnOH] | +^[15] | significantly reduced | +^[15] | -^[15] | +^[15] | significantly reduced | -^[15] | -* | – | – | – | – | –
CCOC(=O)c1cncn1[C@H](C)c1ccccc1 [etomidate, R-etomidate] | -^[13, 15] | – | -^[9, 15] | +^[13, 15] | -^[9, 15] | – | -^[13, 15] | – | 3.8 | +^[9], [12] | +^[13] | – | –
C=CCC1(c2cccc(C3(C(F)(F)F)N=N3)c2)C(=O)NC(=O)N(C)C1=O (stereo not drawn) [R-mTFD-MPAB, R-5-allyl-1-methyl-5-(m-trifluoromethyl-diazirynylphenyl) barbituric acid] | +^[13, 15] | – | +^[9, 15], | -^[13, 15] | -^[9, 15] | – | +^[13, 15] | -^[9], * | 2.1 | -^[9] | -^[13] | protection was inferred | 47
